Reference: ChEMBL document CHEMBL5465560, “Selectivity Literature for EUbOPEN Chemogenomic Library” (2024)
Values belong to the compound of their own block, whether it stands above or below them.

How the values were obtained:
[1] = biological target: Histone-lysine N-methyltransferase SUV39H2 (Homo sapiens) (UniProt Q9H5I1); test: Selectivity interaction (Methyltransferase screen (radiometric assays, panel of 8 PRMTs, 21 protein lysine methyltransferases, 3 DNA methyltransferases, and one RNA methyltransferase)) EUB0000271b SUV39H2
Chain of Histone-lysine N-methyltransferase SUV39H2 (Homo sapiens) (Q9H5I1 whole entry): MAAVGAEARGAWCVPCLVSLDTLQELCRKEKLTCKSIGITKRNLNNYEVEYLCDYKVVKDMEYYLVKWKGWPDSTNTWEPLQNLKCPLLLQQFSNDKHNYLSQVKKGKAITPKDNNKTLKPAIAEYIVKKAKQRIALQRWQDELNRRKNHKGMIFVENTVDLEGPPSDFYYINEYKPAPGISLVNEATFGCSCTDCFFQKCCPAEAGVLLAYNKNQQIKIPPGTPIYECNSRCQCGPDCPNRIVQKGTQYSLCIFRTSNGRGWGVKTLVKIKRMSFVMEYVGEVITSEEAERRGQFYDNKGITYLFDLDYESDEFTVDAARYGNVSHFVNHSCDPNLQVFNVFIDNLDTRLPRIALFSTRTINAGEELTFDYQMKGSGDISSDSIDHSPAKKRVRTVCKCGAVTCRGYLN

[2] = biological target: T1, Serine/threonine-protein kinase LATS2 (Homo sapiens) (UniProt Q9NRM7); conditions: at 10 µM
T1 sequence (whole entry): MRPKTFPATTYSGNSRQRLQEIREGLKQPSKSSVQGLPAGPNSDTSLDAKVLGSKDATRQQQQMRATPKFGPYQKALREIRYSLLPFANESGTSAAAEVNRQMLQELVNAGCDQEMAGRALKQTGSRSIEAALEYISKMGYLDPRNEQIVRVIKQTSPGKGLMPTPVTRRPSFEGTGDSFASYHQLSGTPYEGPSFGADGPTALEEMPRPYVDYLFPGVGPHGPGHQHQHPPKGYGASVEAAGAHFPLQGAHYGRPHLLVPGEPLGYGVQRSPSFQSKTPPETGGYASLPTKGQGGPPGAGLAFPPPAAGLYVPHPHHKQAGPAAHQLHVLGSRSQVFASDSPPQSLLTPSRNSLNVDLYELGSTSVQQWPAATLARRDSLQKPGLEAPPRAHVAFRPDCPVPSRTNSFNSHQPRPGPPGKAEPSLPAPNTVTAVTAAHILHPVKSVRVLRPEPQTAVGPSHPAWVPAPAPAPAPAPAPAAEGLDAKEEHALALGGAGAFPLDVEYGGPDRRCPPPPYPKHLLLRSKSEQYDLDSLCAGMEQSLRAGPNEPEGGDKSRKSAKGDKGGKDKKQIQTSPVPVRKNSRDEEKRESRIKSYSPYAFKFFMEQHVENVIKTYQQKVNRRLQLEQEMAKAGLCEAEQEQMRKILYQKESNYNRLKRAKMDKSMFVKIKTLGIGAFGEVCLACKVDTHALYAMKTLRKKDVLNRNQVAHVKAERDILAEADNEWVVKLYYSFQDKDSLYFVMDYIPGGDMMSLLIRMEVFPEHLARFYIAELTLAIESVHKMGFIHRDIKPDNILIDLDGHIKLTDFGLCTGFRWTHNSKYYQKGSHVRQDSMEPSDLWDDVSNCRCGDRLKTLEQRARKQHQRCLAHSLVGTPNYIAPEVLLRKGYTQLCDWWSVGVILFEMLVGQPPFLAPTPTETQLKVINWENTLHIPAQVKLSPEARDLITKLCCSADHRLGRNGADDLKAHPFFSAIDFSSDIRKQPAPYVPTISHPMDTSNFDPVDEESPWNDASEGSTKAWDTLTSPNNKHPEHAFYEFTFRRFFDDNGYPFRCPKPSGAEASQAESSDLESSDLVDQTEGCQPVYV

[3] = biological target: Casein kinase I isoform gamma-1 (Homo sapiens) (UniProt Q9HCP0); test: Selectivity interaction (Ambit KINOMEscan and KiNATiv profiling in Jurkat cells) EUB0000090b CSNK1G1; format: cell-based; conditions: at 1 µM
Chain of Casein kinase I isoform gamma-1 (Homo sapiens) (Q9HCP0 whole entry, looked up, canonical isoform): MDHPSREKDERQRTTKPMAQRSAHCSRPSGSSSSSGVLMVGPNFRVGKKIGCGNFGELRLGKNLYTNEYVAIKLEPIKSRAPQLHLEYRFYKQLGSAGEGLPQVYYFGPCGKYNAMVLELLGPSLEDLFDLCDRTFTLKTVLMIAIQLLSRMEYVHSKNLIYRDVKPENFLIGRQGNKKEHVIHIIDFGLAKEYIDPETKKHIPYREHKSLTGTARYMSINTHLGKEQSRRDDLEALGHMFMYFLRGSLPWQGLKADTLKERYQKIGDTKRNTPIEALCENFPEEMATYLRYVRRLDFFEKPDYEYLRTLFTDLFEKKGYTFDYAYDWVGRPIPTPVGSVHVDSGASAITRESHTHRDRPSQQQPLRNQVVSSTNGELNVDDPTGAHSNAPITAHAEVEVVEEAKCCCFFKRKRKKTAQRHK

[4] = biological target: Serine/threonine-protein kinase MRCK gamma (Homo sapiens) (UniProt Q6DT37); test: Selectivity interaction (Ambit KINOMEscan and KiNATiv profiling in Jurkat cells) EUB0000090b CDC42BPG; format: cell-based; conditions: at 1 µM
Chain of Serine/threonine-protein kinase MRCK gamma (Homo sapiens) (Q6DT37 whole entry): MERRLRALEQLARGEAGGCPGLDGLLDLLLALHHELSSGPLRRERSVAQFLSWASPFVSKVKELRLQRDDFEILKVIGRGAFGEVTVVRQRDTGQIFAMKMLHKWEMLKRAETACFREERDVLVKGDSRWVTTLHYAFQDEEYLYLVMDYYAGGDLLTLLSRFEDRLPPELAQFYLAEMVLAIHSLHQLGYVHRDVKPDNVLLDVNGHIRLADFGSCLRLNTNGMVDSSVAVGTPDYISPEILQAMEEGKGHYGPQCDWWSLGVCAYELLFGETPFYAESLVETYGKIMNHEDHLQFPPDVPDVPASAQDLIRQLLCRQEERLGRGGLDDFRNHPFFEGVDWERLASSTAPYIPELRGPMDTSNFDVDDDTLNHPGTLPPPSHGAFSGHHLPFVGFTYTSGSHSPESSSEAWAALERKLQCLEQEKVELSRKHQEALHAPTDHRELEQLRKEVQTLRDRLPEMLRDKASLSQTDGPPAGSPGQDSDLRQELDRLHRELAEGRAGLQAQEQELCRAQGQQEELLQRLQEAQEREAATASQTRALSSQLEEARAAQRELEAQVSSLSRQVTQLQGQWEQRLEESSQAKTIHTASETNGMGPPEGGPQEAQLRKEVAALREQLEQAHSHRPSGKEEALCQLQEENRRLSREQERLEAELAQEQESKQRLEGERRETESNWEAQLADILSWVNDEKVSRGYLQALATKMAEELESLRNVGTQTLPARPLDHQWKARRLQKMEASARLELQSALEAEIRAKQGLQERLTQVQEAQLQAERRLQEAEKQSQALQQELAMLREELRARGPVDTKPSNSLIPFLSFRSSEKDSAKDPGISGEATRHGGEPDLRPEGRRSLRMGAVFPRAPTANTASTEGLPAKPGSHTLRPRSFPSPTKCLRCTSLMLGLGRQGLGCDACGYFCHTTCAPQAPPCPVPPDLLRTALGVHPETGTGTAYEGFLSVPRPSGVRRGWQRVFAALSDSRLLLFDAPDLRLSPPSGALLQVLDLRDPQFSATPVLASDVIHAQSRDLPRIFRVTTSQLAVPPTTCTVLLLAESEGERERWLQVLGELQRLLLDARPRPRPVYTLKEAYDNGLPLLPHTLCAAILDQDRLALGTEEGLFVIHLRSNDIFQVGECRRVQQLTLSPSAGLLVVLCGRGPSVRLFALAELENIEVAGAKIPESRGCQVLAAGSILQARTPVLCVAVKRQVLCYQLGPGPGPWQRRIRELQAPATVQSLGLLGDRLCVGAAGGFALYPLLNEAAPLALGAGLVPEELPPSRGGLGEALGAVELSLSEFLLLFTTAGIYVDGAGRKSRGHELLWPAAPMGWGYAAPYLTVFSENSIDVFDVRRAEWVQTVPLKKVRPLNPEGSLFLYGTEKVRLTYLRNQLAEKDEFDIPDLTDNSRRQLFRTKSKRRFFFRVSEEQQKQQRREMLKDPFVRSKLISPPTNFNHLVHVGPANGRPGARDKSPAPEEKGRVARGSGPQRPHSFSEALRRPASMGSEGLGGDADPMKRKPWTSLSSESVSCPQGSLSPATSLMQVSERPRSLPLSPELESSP

[5] = biological target: Death-associated protein kinase 2 (Homo sapiens) (UniProt Q9UIK4); test: Selectivity interaction (KinomeScan (DiscoverX)) EUB0001079a DAPK2; conditions: at 1 µM
Chain of Death-associated protein kinase 2 (Homo sapiens) (Q9UIK4 whole entry, looked up): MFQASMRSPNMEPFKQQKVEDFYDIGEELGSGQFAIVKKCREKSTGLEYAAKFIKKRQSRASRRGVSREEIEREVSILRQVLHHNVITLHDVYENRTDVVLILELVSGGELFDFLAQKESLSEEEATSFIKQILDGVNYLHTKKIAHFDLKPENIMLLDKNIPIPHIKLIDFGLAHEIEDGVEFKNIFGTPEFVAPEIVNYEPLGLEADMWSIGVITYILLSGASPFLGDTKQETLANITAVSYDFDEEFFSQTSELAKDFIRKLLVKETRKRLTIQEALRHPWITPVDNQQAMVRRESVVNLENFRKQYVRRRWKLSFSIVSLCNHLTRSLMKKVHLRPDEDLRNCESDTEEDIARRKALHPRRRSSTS

[6] = biological target: Microtubule-associated serine/threonine-protein kinase 3 (Homo sapiens) (UniProt O60307); test: Selectivity interaction (ActivX KiNativ screen (ex vivo kinase selectivity in human PBMCs)) EUB0001619a MAST3; format: cell-based; conditions: PBMC, at 1 µM
Chain of Microtubule-associated serine/threonine-protein kinase 3 (Homo sapiens) (O60307 whole entry): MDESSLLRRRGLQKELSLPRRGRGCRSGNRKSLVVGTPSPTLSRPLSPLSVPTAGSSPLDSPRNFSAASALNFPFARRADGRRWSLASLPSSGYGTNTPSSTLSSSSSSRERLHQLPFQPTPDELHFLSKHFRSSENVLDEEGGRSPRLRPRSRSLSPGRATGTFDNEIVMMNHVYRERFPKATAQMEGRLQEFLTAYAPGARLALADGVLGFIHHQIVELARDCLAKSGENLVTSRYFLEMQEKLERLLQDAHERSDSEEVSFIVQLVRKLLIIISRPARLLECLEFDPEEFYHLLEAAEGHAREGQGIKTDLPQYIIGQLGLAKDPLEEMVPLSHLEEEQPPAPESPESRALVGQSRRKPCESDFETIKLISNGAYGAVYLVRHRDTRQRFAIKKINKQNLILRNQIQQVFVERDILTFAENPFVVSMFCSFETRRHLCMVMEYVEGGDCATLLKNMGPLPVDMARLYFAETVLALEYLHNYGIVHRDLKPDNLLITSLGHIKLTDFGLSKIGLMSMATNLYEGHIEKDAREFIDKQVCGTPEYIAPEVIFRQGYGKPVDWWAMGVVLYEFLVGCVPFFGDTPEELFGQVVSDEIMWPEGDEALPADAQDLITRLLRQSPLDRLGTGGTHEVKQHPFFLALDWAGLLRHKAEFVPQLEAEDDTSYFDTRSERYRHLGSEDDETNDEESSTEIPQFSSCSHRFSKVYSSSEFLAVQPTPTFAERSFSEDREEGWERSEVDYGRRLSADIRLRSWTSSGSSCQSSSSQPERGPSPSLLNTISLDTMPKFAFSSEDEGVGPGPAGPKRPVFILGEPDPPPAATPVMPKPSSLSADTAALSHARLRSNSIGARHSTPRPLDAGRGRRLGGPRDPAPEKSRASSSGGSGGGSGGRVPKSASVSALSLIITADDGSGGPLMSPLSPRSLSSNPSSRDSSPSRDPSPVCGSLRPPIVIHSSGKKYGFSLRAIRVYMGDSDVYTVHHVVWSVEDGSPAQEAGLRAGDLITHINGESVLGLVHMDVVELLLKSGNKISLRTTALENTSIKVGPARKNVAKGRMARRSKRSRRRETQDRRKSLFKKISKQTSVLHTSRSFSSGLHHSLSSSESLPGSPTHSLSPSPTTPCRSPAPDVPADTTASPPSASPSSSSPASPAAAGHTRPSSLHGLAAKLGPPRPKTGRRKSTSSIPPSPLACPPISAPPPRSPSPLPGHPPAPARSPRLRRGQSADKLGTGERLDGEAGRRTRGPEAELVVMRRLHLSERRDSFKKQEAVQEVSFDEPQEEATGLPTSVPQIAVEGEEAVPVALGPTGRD

[7] = biological target: T2, Mitogen-activated protein kinase kinase kinase 13 (Homo sapiens) (UniProt O43283); test: Selectivity interaction (KinomeScan (DiscoverX)) EUB0000092b MAP3K13; conditions: at 10 µM
T2 sequence (whole entry): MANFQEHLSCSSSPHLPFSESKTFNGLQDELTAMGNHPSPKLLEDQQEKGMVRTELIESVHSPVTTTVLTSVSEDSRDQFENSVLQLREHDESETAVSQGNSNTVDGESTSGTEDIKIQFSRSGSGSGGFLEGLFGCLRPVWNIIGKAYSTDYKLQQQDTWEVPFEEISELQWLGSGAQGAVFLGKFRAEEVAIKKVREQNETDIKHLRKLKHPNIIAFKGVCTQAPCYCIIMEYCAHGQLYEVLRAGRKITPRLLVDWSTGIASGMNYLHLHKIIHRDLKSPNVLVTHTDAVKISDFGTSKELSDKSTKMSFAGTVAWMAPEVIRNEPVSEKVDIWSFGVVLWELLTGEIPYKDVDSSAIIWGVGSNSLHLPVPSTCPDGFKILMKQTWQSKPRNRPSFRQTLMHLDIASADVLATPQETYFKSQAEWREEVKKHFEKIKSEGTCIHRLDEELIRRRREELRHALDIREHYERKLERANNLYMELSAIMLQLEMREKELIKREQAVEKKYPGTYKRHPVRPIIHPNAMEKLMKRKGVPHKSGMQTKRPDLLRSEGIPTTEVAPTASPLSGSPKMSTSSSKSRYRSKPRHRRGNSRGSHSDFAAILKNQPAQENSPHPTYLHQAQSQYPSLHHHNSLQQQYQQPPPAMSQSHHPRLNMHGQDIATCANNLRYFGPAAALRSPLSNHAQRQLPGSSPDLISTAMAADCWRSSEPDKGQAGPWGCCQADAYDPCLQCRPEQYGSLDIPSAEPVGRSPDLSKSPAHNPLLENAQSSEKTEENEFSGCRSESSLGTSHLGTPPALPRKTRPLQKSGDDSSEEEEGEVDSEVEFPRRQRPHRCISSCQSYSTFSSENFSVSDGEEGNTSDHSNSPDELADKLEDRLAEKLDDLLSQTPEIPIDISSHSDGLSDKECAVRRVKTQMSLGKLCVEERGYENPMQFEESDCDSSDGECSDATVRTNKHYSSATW

Structure (SMILES): Cc1cc(C)cc([C@@H]2c3cc(C)ccc3NC(=O)CN2C(=O)c2ccc(Br)s2)c1
% of activity ([1]; at 1 µM): 99.3%
% of activity ([1]; at 10 µM): 98.3%

% of control [2]: 100%
Structure (SMILES): CCN(CC)CCCCNc1ncc2cc(-c3cc(OC)cc(OC)c3)c(NC(=O)NC(C)(C)C)nc2n1

Structure (SMILES): CN(C)C/C=C/C(=O)Nc1ccc(C(=O)N2CCCC(Nc3ncc(Cl)c(-c4c[nH]c5ccccc45)n3)C2)cc1 (stereo not drawn)
% of control [3]: 94%
% of control [4]: 90%

Structure (SMILES): Nc1cnc(N2CCc3cc(S(=O)(=O)Nc4c(F)cc(Cl)cc4F)cc(N4CCCC4=O)c32)nc1 [TP-020n]
% of control [5]: 91%

Structure (SMILES): N#Cc1cccc(-c2c[nH]c3ncnc(N4CCOCC4)c23)c1
% of inhibition [6]: 1%

Structure (SMILES): CCC(=O)N1CCN(c2ccc(-n3c(=O)ccc4cnc5ccc(-c6cnc7ccccc7c6)cc5c43)cc2C(F)(F)F)CC1
% of control [7]: 100%
